Reference: ChEMBL document CHEMBL4033723, “Succinamide derivatives of melampomagnolide B and their anti-cancer activities” (2017)

Legend:
Type in all cases: functional
[1] = Induction of apoptosis in human M9-ENL1 cells assessed as cell death after 24 hrs by Annexin V/PI or 7-AAD staining based flow cytometry; conditions: M9-ENL1, 24 h, read-out: LC50 (the source's name)
[2] = system: CCRF-CEM; assay: Growth inhibition of human CCRF-CEM cells after 48 hrs by sulforhodamine B assay
[3] = system: NCI-H522; assay: Growth inhibition of human NCI-H522 cells after 48 hrs by sulforhodamine B assay; conditions: NCI-H522, 48 h
[4] = system: COLO 205; assay: Growth inhibition of human COLO205 cells after 48 hrs by sulforhodamine B assay; conditions: COLO 205, 48 h
[5] = system: SK-OV-3; assay: Growth inhibition of human SKOV3 cells after 48 hrs by sulforhodamine B assay; conditions: SK-OV-3, 48 h
[6] = system: MCF7; assay: Growth inhibition of human MCF7 cells after 48 hrs by sulforhodamine B assay; conditions: MCF7, 48 h
[7] = Growth inhibition of human M9-ENL1 cells after 24 hrs by trypan blue assay; conditions: M9-ENL1, 24 h

Row | Structure (SMILES) | CC50 [1] | further results
1 | C=C1C(=O)O[C@@H]2C3O[C@]3(C)CC/C=C(\C)CC[C@@H]12 (stereo not given in full) | 7.5 µM | –
2 | C=C1C(=O)O[C@H]2[C@H]1CC/C(COC(=O)CCC(=O)NCCCNC(=O)CCC(=O)OC/C1=C/CC[C@@]3(C)O[C@H]3[C@H]3OC(=O)C(=C)[C@@H]3CC1)=C\CC[C@@]1(C)O[C@@H]21 | 10 µM | –
3 | C=C1C(=O)O[C@H]2[C@H]1CC/C(COC(=O)CCC(=O)NCc1ccc(Cl)nc1)=C\CC[C@@]1(C)O[C@@H]21 | 14 µM | GI50 [2]: 2.2 µM; GI50 [3]: 1.6 µM; GI50 [4]: 3.3 µM; GI50 [5]: 28 µM; GI50 [6]: 3.2 µM; GI50 [7]: 6.5 µM
4 | C=C1C(=O)O[C@H]2[C@H]1CC/C(COC(=O)CCC(=O)NCCCCNC(=O)CCC(=O)OC/C1=C/CC[C@@]3(C)O[C@H]3[C@H]3OC(=O)C(=C)[C@@H]3CC1)=C\CC[C@@]1(C)O[C@@H]21 | 19 µM | –
5 | C=C1C(=O)O[C@H]2[C@H]1CC/C(COC(=O)CCC(=O)NCCCn1ccnc1)=C\CC[C@@]1(C)O[C@@H]21 | > 20 µM | –
6 | C=C1C(=O)O[C@H]2[C@H]1CC/C(COC(=O)CCC(=O)NCCN1CCOCC1)=C\CC[C@@]1(C)O[C@@H]21 | 20 µM | –
7 | C=C1C(=O)O[C@H]2[C@H]1CC/C(COC(=O)CCC(=O)NCCCCCCNC(=O)CCC(=O)OC/C1=C/CC[C@@]3(C)O[C@H]3[C@H]3OC(=O)C(=C)[C@@H]3CC1)=C\CC[C@@]1(C)O[C@@H]21 | 21 µM | –
8 | C=C1C(=O)O[C@H]2[C@H]1CC/C(COC(=O)CCC(=O)NCCc1ccccn1)=C\CC[C@@]1(C)O[C@@H]21 | 13.5 µM | –
9 | C=C1C(=O)O[C@H]2[C@H]1CC/C(COC(=O)CCC(=O)NCCCCCCCNC(=O)CCC(=O)OC/C1=C/CC[C@@]3(C)O[C@H]3[C@H]3OC(=O)C(=C)[C@@H]3CC1)=C\CC[C@@]1(C)O[C@@H]21 | 15 µM | –
